Laboratory results from patent US5932607A, “Imidazole derivatives and process for preparing the same” (Kyorin Pharmaceutical Co., Ltd., priority 1993, dated 1999).
Read-outs that look alike come from different tables or passages of the source.

How the values were obtained:
Type in all cases: cell-based, guinea pig (male Hartley)
[1] = biological target: T1, muscarinic receptor (trachea) (Cavia porcellus, UniProt H0W1Z3); assay: Anticholinergic action in guinea-pig trachea (antagonism of ACh response, Schild or van Rossum method); details: Tyrode solution, 37° C., 10 minutes equilibration, read-out: Anticholinergic activity (pA2) Trachea (converted)
T1 construct: from tissue; host or cells: guinea-pig tracheal ring strips (male Hartley)
T1 sequence (H0W1Z3 1-590): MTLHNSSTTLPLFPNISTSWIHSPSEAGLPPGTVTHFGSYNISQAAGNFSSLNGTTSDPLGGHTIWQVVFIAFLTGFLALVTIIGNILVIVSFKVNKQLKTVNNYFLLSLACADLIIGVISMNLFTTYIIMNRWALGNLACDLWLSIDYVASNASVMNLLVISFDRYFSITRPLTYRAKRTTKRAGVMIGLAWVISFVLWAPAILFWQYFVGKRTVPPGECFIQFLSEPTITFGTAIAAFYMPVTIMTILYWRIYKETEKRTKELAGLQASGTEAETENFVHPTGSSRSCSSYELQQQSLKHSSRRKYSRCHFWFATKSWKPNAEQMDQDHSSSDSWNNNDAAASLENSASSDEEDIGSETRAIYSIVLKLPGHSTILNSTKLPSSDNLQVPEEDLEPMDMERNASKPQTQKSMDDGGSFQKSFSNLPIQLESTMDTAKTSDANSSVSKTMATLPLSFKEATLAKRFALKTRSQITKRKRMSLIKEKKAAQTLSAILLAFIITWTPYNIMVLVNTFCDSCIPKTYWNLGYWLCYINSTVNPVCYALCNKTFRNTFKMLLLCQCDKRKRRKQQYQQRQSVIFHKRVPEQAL
Protocol: 4. Anticholinergic action in guinea-pig trachea Male Hartley guinea-pigs were killed by blowing on the head and bleeding.
Ring strips of trachea were suspended in organ bath filled with Tyrode solution, kept at 37° C. and gassed with a mixture of 95% O2 and 5% CO2.
Responses to ACh were isometrically recorded under a tension of 1 g. Concentration-Response curves were obtained cumulative addition of ACh and repeated in the presence of various concentrations of test compounds, allowing 10 minutes equilibration time.

[2] = biological target: T2, muscarinic receptor (atrium, cardiac) (Cavia porcellus, UniProt H0VRN8); assay: Anticholinergic action in guinea-pig atria (antagonism of ACh response, Schild method); details: for Kb: read-out: Anticholinergic activity (pA2) Atrium (converted)
T2 construct: from tissue; host or cells: guinea-pig isolated atria (male Hartley)
T2 sequence (H0VRN8 1-466): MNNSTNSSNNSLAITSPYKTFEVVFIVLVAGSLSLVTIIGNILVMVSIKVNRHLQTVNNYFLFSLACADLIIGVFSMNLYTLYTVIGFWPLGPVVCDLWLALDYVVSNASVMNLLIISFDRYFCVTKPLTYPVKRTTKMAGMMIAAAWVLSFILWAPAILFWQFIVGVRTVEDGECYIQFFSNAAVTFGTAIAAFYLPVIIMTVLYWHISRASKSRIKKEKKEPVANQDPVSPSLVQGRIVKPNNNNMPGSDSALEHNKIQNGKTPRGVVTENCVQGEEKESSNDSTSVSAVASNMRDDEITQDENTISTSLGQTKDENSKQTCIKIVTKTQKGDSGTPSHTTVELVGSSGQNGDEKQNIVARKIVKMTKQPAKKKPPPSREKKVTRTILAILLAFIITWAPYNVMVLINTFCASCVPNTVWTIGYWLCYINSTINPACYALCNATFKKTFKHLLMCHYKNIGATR
Protocol: (§1) 1. Anticholinergic action in guinea-pig ileum and atria Male Hartley guinea pigs were sacrificed by blowing on the head and bleeding.
The isolated atria were suspended under 0.5 g tension in organ baths containing Tyrode solution gassed with 95% O2 and 5% CO2 at 32° C.
Dose-response curves were obtained by cumulative addition of ACh and repeated in the presence of various concentrations of test compounds, allowing 10 min. equilibration time.
The affinity of test compounds were determined as described for ileum.

[3] = biological target: T3, muscarinic receptor (ileum) (Cavia porcellus, UniProt H0W1Z3); assay: Anticholinergic action in guinea-pig ileum (antagonism of ACh response, Schild method); details: ileum, Tyrode solution, 32° C., test compound 5 min. before ACh; for Kb: read-out: Anticholinergic activity (pA2) Ileum (converted)
T3 construct: from tissue; host or cells: guinea-pig ileal segments (male Hartley)
T3 sequence (H0W1Z3 1-590): as the sequence (H0W1Z3 1-590) above
Protocol: as §1
(§2) Responses to acetyllchlloline (ACh) added cumulatively to the baths were isotonically recorded under a tension of 1 g. Dose-response curves of ACh were determined in the absence and presence of test compounds in various concentrations added to the baths 5 min. before ACh application.

[4] = test system: muscarinic receptor (ileum); assay: as above; details: ileum versus heart
Protocol: as §1, §2

[5] = Table 8, isolated atria, Tyrode solution, 32° C., 10 min. equilibration

Kb [1] | Kb ([2]; Table 9, atrium) | Kb [2, 5] | Compound | affinity for receptors in ileum as compared to receptors in heart [4] | also measured
4.57 nM | 20 nM | – | Cc1n(CCCCC(C(N)=O)(c2ccccc2)c2ccccc2)cc[n+]1Cc1ccccc1 [Example 51] | – | –
– | – | 18.6 nM | CC(C)c1nccn1CCC(C(N)=O)(c1ccccc1)c1ccccc1 [Example 14, 4-(2-isopropyl-1-imidazolyl)-2,2-diphenylbutylamide] | 10 times | Kb [3]: 0.676 nM
5.25 nM | 28.8 nM | – | Cc1n(CCC(C(N)=O)(c2ccccc2)c2ccccc2)cc[n+]1Cc1ccc(F)c(F)c1 [Example 44] | – | –
4.57 nM | 30.2 nM | – | Cc1n(CCC(C(N)=O)(c2ccccc2)c2ccccc2)cc[n+]1Cc1ccc(-c2ccccc2)cc1 [Example 50] | – | –

Further lines, the compound ahead of its results:

Compound | Kb [1] | Kb ([2]; Table 9, atrium) | Kb [2, 5] | affinity for receptors in ileum as compared to receptors in heart [4] | also measured
Cc1nccn1CCCC(C#N)(c1ccccc1)c1ccccc1 [Example 7] | – | – | 6.17 nM | – | Kb [3]: 1.12 nM
CCN(CC)CC#CCOC(=O)C(O)(c1ccccc1)C1CCCCC1 (stereo not shown) [Oxybutynin, reference compound] | – | – | 4.07 nM | – | –
Cc1nccn1CCC(C(N)=O)(c1ccccc1)c1ccccc1 [Example 11, 4-(2-Methyl-1-imidazolyl)-2,2-diphenylbutylamide] | – | – | – | 10 times | –
Cc1nccn1CCCCC(C#N)(c1ccccc1)c1ccccc1 [Example 8] | – | – | – | 10 times | Anticholinergic activity (pA2) Atrium [2, 5]: 7.08; Anticholinergic activity (pA2) Ileum [3]: 8.17
